Data reported in US20240226292A1, “METHODS AND COMPOSITIONS FOR TARGETING OF ANTIGENS AND OTHER POLYPEPTIDES TO FIRST RESPONDER DENDRITIC CELLS” (THE UNIVERSITY OF CHICAGO, priority 2021, published 2024).

How the values were obtained:
BMDCs = assay: Nocodazole treated BMDCs, MP uptake and % FRs by imagestream; format: cell-based, mouse; conditions: 10 nM Nocodazole for 20 hrs prior to MP treatment, versus NT
Experimental: FIGS. 39A-39E. FRs are more likely actively dividing. (FIG. 39A) 1 million BMDCs were incubated with 1 million MP-TLR4 for 15 mins, washed and stain with Hoest for nuclear stain (0.1 ug/mL) and anti-CD11c antibody. […] (FIG. 39B) Graph of imagestream data from FIG. 39A from an N=3 showing that most BMDC FRs are in G2 phase. (FIG. 39C) 1 million BMDCs were similarly treated as in FIG. 39A, except some samples were treated with 10 nM Nocodazole for 20 hrs prior to MP-TLR4 treatment. NT=non-treated, Noco=Nocodazole treated. (FIG. 39D) Similar to FIG. 39C, BMDCs were treated with MP-TLR7 or Blank MPs (1:1 particles/cells) for 15 mins, then tested via imagestream. Total MP uptake per 100 k BMDCs were calculated for either NT or Noco treated samples. […] N=3, Error bars indicate +/−SD.

PRG2 = biological target: T1, PRG2 (Homo sapiens, UniProt P13727); conditions: cited from earlier work
T1 sequence (P13727 106-222): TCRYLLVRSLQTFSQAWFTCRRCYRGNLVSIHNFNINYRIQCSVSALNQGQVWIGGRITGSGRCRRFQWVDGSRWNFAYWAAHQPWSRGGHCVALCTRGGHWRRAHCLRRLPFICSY

FRs = assay: CD206 targeting peptide liposomes, FR targeting in BMDCs and splenocytes; format: cell-based, mouse; conditions: lipid-peptide in 200 nm liposomes at 1% total lipid, in combination with heparin or GFLSKSLVF
Experimental: FIGS. 48A-48B. FR targeting peptides. A peptide targeting CD206 as described in a study by Ghebremedhin et al (Ghebremedhin A, Salam AB, Adu-Addai B, et al. Preprint. bioRxiv. 2020;2020.07.27.218115; incorporated herein by reference), having sequence RWKFGGFKWR (SEQ ID NO:2), was synthesized using the same lipid-peptide display technique as shown previously and incorporated into 200 nm liposomes at 1% total lipid. (FIG. 48A) 200K BMDCs were incubated with liposomes at either 1 or 10 uM total lipid concentration for 15 mins, then incubated with MP-TLR4 (200K) for 15 mins, washed and stained. The liposomal RFU is plotted for various formulations. MMR=CD206 targeting lipid at 1% total lipid, DAP12=DAP12 targeting lipid at 1% total lipid, Hep=heparin-lipid conjugate at 10% total lipid. (FIG. 48B) similar to part A, but using 2 million splenocytes and gating on all CD11c+ cells.
(§1) Additional characterization and targeting of first responder dendritic cells (FRs) was performed.

[1] = Liposomes loaded with cell cycle blocking agents and FLA before OVA/CpG vaccination; format: in vivo, mice; conditions: liposomes i.p. day 1, 100 ug OVA/10 ug CpG day 2
Experimental: FIGS. 42A-42D. […] Liposomes were loaded with two agents to block cell cycle (Cytoclastin D, CytoD, which blocks cells in G1 phase and Nocodozole, Noco, which blocks cells in G2 phase) as well as flagellin(FLA) as an TLR agonist. Mice were injected with 200 uL of 10 mM total lipid liposomes containing either (1) PBS only, Blank (2) FLA, 1 ug total per injection (3) FLA and 100 ug CytoD or (4) FLA+20 ug Noco. Mice were injected i.p with liposomes on day 1, then injected with 100 ug OVA/10 ug CpG (free formulation) on day 2 also i.p. Sera was collected via cheek bleed 1 hr after OVA/CpG injection. Mice were then sac'd on day 10 to observe anti-OVA Ig. Serum levels 1 h after injection for (FIG. 42A) IL-4, (FIG. 42B) MCP-1 and (FIG. 42C) TNF-a. (FIG. 42D) Total anti-OVA Ig on […]. N=5 mice per group.
as §1

DAP12 = DAP12 (Homo sapiens, UniProt O43914); conditions: cited from earlier work
DAP12, sequence (O43914 22-113, species assumed): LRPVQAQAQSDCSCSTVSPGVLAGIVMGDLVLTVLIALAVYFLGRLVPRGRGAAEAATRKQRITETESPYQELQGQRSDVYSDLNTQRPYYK

Compound: COC(=O)Nc1nc2cc(C(=O)c3cccs3)ccc2[nH]1 [Noco, Nocodazole]
- total % of FRs (BMDCs): increases in FR population

Compound: heparin
- affinity to PRG2 (PRG2): moderate affinity

Compound: RWKFGGFKWR [peptide targeting CD206 as described by Ghebremedhin et al]
- identification and targeting of FRs (FRs): can identify and target FRs

Compound: C=C1[C@@H](C)[C@H]2[C@H](Cc3ccccc3)NC(=O)[C@]23[C@H](OC(C)=O)/C=C/[C@@](C)(O)C(=O)[C@@H](C)C/C=C/[C@H]3[C@@H]1O [Cytoclastin D]
- vaccine response [1]: increases vaccine response

Compound: GFLSKSLVF
- binding to DAP12 (DAP12): selectively binding
